Test results: PMC8151276, “An Integrated Approach toward NanoBRET Tracers for Analysis of GPCR Ligand Engagement” (Molecules, 2021)

Columns and labels:
EDNRB = target: T1, EDNRB (Homo sapiens, UniProt P24530); test: NanoBRET screen HiBiT-EDNRB in HEK293; format: binding; conditions: EDNRB
T1 construct: purchased Promega (in-house HiBiT-GPCR construct library, NanoBRET)
T1 sequence (P24530 27-442): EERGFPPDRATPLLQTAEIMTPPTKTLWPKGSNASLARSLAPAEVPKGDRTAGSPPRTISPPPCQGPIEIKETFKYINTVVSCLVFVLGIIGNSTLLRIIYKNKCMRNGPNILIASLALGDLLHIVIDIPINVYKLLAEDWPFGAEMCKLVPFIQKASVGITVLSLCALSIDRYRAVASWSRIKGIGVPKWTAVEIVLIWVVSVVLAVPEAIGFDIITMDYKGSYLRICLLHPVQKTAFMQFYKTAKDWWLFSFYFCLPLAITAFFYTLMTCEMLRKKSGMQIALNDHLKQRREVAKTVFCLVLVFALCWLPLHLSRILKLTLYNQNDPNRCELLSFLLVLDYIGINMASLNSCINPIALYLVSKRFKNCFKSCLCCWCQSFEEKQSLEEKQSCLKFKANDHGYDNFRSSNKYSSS
Procedure: (§1) Each tracer candidate was screened across the entire library of HiBiT-GPCR constructs using NanoBRET as the detection modality. As depicted in Figure 4A, the specificity of interactions was evaluated through decrease in BRET due to competitive displacement of a bound tracer by excess parental compound. Each tracer was analyzed for binding to each HiBiT-GPCR fusion in the absence and in the presence of competing parental compound. Briefly, HEK293 cells were transfected with HiBiT-GPCR constructs diluted into promoterless DNA to reduce expression and maximize translocation to the cell surface. Each tracer candidate was then screened at concentrations of 1 μM and 0.1 μM across cells expressing these fusions. Cells were treated for 1.5 h with tracer either alone or in the presence of 20 μM competing parental compound (i.e., control). BRET was measured upon addition of purified LgBiT and subsequent complementation with HiBiT genetically fused to a GPCR. The specificity of interactions was assessed through a decrease in BRET signal due to competitive displacement of the bound tracer. To further gauge the robustness of these interactions, the fold response over the control (i.e., BRETtracer/BRETcontrol) was calculated. We chose a 1.5-fold response, which translates to ≥7-fold signal over noise as the minimal threshold required to score an interaction as positive.
(§2) HiBiT-GPCR DNA constructs were diluted in 10 mM Tris pH 8 to a final concentration of 0.01 μg/μL, arrayed in 96-well plates and stored at −20 °C. For transfection, HEK293 cells were suspended in Opti-MEM (without phenol red) supplemented with 2% fetal bovine serum (Seradigm) and 100 units/mL penicillin–streptomycin (Gibco) at a final concentration of 220,000 cells/mL and dispensed into white 96-well plates at 90 μL/well. Subsequent transfections and screens were carried using an Agilent Bravo Automated Liquid Handling Platform. First, the 96-well HiBiT DNA arrays were diluted 25-fold in Opti-MEM (without serum or phenol red) to a final concentration of 0.0004 μg/μL and 20 μL of the diluted DNAs were transferred into new 96-well plates. Next, promoterless carrier DNA (1 μg/μL) was diluted 25-fold (0.04 μg/μL) and then dispensed into the diluted arrays at 20 μL/well. Following brief mixing, Viafect transfection reagent (Promega) diluted 16-fold into Opti-MEM was dispensed into the plates at 40 μL/well. After mixing by pipetting, plates were incubated for 10 min on the pipetting station deck. The DNA-transfection reagent complexes were then added to plates containing cells. To facilitate the screen, 10 μL of DNA-transfection reagent complexes were added in duplicates to the top 4 and bottom 4 rows, resulting in two identical 48-well arrays per plate. Plates with transfected cells were incubated for 18–20 h at 37 °C/5% CO2. A screen of each tracer across the entire library using two different concentrations requires duplicate plates of transfected cells. Depending on the number of tracers being screened, transfections can be scaled up using the same ratios. The next day, for each tracer, four 20× screening solutions in tracer dilution buffer (Promega) were prepared: two duplicates at final concentration of 20 μM and two duplicates at a final concentration of 2 μM. […] The four resulting solutions were diluted 4-fold in Opti-MEM without serum or phenol red to generate 5× solutions (5 µM and 0.5 µM tracer +/− 100 μM competing compound). To screen the library, a BioTek MultiFlo FX liquid dispenser was used to dispense 22.5 µL of tracer solution to the top 4 rows and 22.5 µL tracer + competing compound solution to the 4 bottom rows. Plates were briefly mixed on an orbital shaker and incubated for 1.5 h at room temperature. […] Plates were briefly mixed on an orbital shaker and incubated for 15 min to allow complementation.

HTR1A = target: T2, HTR1A (Homo sapiens, UniProt P08908); test: NanoBRET screen HiBiT-HTR1A in HEK293; format: binding; conditions: HTR1A
T2 construct: purchased Promega (in-house HiBiT-GPCR construct library, NanoBRET)
T2 sequence (P08908 1-422): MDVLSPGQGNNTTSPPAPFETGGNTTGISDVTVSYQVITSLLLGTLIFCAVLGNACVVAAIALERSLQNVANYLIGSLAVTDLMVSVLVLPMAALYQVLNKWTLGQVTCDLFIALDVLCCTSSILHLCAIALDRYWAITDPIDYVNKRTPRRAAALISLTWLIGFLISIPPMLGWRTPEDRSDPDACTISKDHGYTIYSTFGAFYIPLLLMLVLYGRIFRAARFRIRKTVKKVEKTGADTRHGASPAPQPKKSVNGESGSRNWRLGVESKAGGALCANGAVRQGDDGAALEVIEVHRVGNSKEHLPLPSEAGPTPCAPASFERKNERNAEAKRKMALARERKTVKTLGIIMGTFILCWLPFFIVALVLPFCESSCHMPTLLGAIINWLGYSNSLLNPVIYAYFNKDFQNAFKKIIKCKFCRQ
Procedure: as §1, §2

| SMILES | NanoBRET Fold Response (EDNRB; tracer 0.1μM) | NanoBRET Fold Response (EDNRB; tracer 1μM) | NanoBRET Fold Response (HTR1A; tracer 0.1μM) | NanoBRET Fold Response (HTR1A; tracer 1μM) |
| --- | --- | --- | --- | --- |
| Cc1nc2n(c(=O)c1CCN1CCC(c3noc4cc(F)ccc34)CC1)CCCC2OC(=O)NCCOCCOCCOCCOCCNC(=O)CCc1ccc2n1[B-](F)(F)[N+]1=C(c3ccc[nH]3)C=CC1=C2 (stereo not shown) [Risperidone-2-NB590] | 1.02 | 0.97 | 1.24 | 1.15 |
| CC(C)N(CC[C@H](c1ccccc1)c1cc(CCNC(=O)CCOCCOCCOCCOCCNC(=O)CCc2ccc3n2[B-](F)(F)[N+]2=C(c4ccc[nH]4)C=CC2=C3)ccc1O)C(C)C [Tolterodine-2-NB590] | 0.97 | 1.03 | 1.14 | 1.06 |
| CC(C)N(CC[C@H](c1ccccc1)c1cc(CCNC(=O)c2ccc(CNC(=O)CCc3ccc4n3[B-](F)(F)[N+]3=C(c5ccc[nH]5)C=CC3=C4)cc2)ccc1O)C(C)C [Tolterodine-BZ-NB590] | 0.96 | 0.98 | 1.03 | 1.12 |
| CCCn1c(=O)c2[nH]c(-c3ccc(OCC(=O)NCCNC(=O)CCOCCNC(=O)c4ccc(CNC(=O)CCc5ccc6n5[B-](F)(F)[N+]5=C(c7ccc[nH]7)C=CC5=C6)cc4)cc3)nc2n(CCC)c1=O [XAC-3-NB590] | 0.92 | 1.18 | 1.01 | 0.89 |
